The values that follow come from patent US20240269298A1, “PHOSPHONYL DERIVATIVE, AND COMPOSITION AND PHARMACEUTICAL APPLICATION THEREOF” (XIZANG HAISCO PHARMACEUTICAL CO., LTD., priority 2021, published 2024).

Like-named read-outs stand apart in the source and are kept apart here. Some results are limits rather than exact numbers.

A word on the IC50: it is the concentration that inhibits the measured activity by half. By AUC(0-t) is commonly meant the area under the concentration-time curve up to a stated or last time point. The low end stands for low exposure, the high end for high exposure. For orientation: AUC means concentration integrated over time. A lower AUC goes with less exposure. The term half-life denotes the time in which the quantity being followed falls by half. Higher therefore signals slow loss.

Data set [1] relates to NCI-H1975 (EGFR-L858R-T790M) cells. The experiment in a line: Inhibitory activity on proliferation of NCI-H1975 (EGFR-L858R-T790M) cells (CTG, 72 h). In kind it is cell-based. The settings on record: Homo sapiens. The gist of the method: (§1)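 Cells plated at 1000/well (NCI-H1975, RPMI1640+10% FBS) or 3000/well (A431, DMEM+10% FBS), dosed next day with compounds (0.1% DMSO final) for 72 h at 37 °C, 5% CO2. Viability by CTG luminescence, normalised to vehicle control; IC50 from nonlinear-regression dose-survival curves.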

Data set [2] concerns NCI-H1975 EGFR-L858R-T790M-C797S cells. The experiment in a line: Inhibitory activity on proliferation of NCI-H1975 EGFR-L858R-T790M-C797S cells (CellTiter-Glo, 72 h). The settings on record: Homo sapiens. The class given is cell-based. How it is done:
NCI-H1975 EGFR-L858R-T790M-C797S cells were cultured in an incubator at 37° C. with 5% CO2, and the culture medium was RPMI1640+10% FBS+100 μg/mL hygromycin. The cells in the logarithmic phase were collected, and the cell suspension was adjusted to an appropriate concentration with a hygromycin-free culture medium, and then plated on a 96-well plate at a density of 1500 cells/well and a volume of 90 μL. 10 μL of the compounds at different concentrations were added, and a vehicle control group (cells plus DMSO) was provided, wherein the concentration of DMSO was 0.1%. The cell culture plate was cultured in an incubator at 37° C. with 5% CO2 for 72 hours. After the incubation was completed, according to operation instructions for a CellTiter-Glo kit (Promega, G7572), 50 μL of CTG solution, which was already pre-melted and equilibrated to room temperature, was added to each well, and the mixtures were uniformly mixed for 2 min using a microplate shaker. The plate was placed at room temperature for 10 min, and then […] signal values were measured using a microplate reader (Envision 2104). […] was processed based on formula (2), and using the GraphPad Prism 5.0 software and nonlinear regression model, S-shaped dose-survival curves were plotted, and IC50 values were calculated. wherein Vsample was the readout of the drug-treated group, and Vvehicle control was the readout of the control group.
Background: Cellular ATP, detected with luciferase, serves as a proxy for viable cell number.

Data set [3] in a line: Pharmacokinetic test in mice. In kind it is in vivo. The settings on record: male, ICR, mouse, po, administration i.g. (10 mg/kg), plasma. The gist of the method: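 Male ICR mice (20-25 g), fasted 12-14 h before dosing and fed 4 h after, received a single intravenous or intragastric dose. Orbital plasma sampled from 0 to 24 h (5 min-24 h points); LC-MS/MS quantitation for PK parameters and bioavailability.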

Another data set relates to A431 (EGFR-WT) cells. The experiment in a line: Inhibitory activity on proliferation of A431 (EGFR-WT) cells (CTG, 72 h). In kind it is cell-based. The following applies: Homo sapiens, A-431. The gist of the method:
as §1

Setting [4] is: read-out: IC50 (value in brackets).

As for `COc1cc(N2CCC(CN3CCN(c4ccc5c(c4)C(=O)N(C4CCC(=O)NC4=O)C5=O)CC3)CC2)c(-c2cnn(C)c2)cc1Nc1ncc(Cl)c(Nc2ccc(-c3ccccc3)cc2P(C)(C)=O)n1` (stereo not drawn) [Compound 65, 5-(4-((1-(4-((5-chloro-4-((3-(dimethylphosphoryl)-[1,1′-biphenyl]-4-yl)amino)pyrimidin-2-yl)amino)-5-methoxy-2-(1-methyl-1H-pyrazol-4-yl)phenyl)piperidin-4-yl)methyl)piperazin-1-yl)-2-(2,6-dioxopiperidin-3-yl)isoindoline-1,3-dione], the IC50 in data set [1] (read-out: IC50 (class symbol)) was 100 to 500 nM; in data set [1] (setting [4]), 129 nM; in data set [2] (read-out: IC50 (class symbol)) it was less than 200 nM; in data set [2] (read-out: IC50 (value)), 136 nM; in the data set on A431 (EGFR-WT) cells, not below 10 µM. In data set [3], this compound yielded an area under the curve AUC(0-t) of 62300 ng·h/mL.

`COc1cc(N2CCC(N3CCN(C4CC5(CCN(c6ccc7c(c6)C(=O)N(C6CCC(=O)NC6=O)C7=O)CC5)C4)CC3)CC2)c(-c2cnn(C)c2)cc1Nc1ncc(Cl)c(Nc2ccc3nccnc3c2P(C)(C)=O)n1` (stereo not drawn) [Trifluoroacetate of compound 7, 5-(2-(4-(1-(4-((5-chloro-4-((5-(dimethylphosphoryl)quinoxalin-6-yl)amino)pyrimidin-2-yl)amino)-5-methoxy-2-(1-methyl-1H-pyrazol-4-yl)phenyl)piperidin-4-yl)piperazin-1-yl)-7-azaspiro[3.5]nonan-7-yl)-2-(2,6-dioxopiperidin-3-yl)isoindoline-1,3-dione]: the IC50 is less than 100 nM in data set [1] (read-out: IC50 (class symbol)); 20 nM in data set [1] (setting [4]); less than 200 nM in data set [2] (read-out: IC50 (class symbol)); 30 nM in data set [2] (read-out: IC50 (value)); not below 10 µM in the data set on A431 (EGFR-WT) cells.

Turning to `COc1cc(N2CCC(N3CCN(CC4CCN(c5ccc6c(c5)C(=O)N(C5CCC(=O)NC5=O)C6=O)C4)CC3)CC2)c(-c2cnn(C)c2)cc1Nc1ncc(Cl)c(Nc2ccc3nccnc3c2P(C)(C)=O)n1` (stereo not drawn) [Compound 6, 5-(3-((4-(1-(4-((5-chloro-4-((5-(dimethylphosphoryl)quinoxalin-6-yl)amino)pyrimidin-2-yl)amino)-5-methoxy-2-(1-methyl-1H-pyrazol-4-yl)phenyl)piperidin-4-yl)piperazin-1-yl)methyl)pyrrolidin-1-yl)-2-(2,6-dioxopiperidin-3-yl)isoindoline-1,3-dione], the IC50 in data set [1] (read-out: IC50 (class symbol)) was less than 100 nM; in data set [1] (setting [4]), 15 nM; in data set [2] (read-out: IC50 (class symbol)), less than 200 nM; in data set [2] (read-out: IC50 (value)), 27 nM; with A431 (EGFR-WT) cells it was not below 10 µM.

On to `COc1cc(N2CCC(N3CCN(CC4CCN(c5ccc6c(c5)C(=O)N(C5CCC(=O)NC5=O)C6=O)CC4)CC3)CC2)c(-c2cnn(C)c2)cc1Nc1ncc(Br)c(Nc2ccc3nccnc3c2P(C)(C)=O)n1` (stereo not drawn) [Compound 18, 5-(4-((4-(1-(4-((5-bromo-4-((5-(dimethylphosphoryl)quinoxalin-6-yl)amino)pyrimidin-2-yl)amino)-5-methoxy-2-(1-methyl-1H-pyrazol-4-yl)phenyl)piperidin-4-yl)piperazin-1-yl)methyl)piperidin-1-yl)-2-(2,6-dioxopiperidin-3-yl)isoindoline-1,3-dione], for which the IC50 was less than 100 nM in data set [1] (read-out: IC50 (class symbol)); 12 nM in data set [1] (setting [4]); less than 200 nM in data set [2] (read-out: IC50 (class symbol)); 24 nM in data set [2] (read-out: IC50 (value)); not below 10 µM in the data set on A431 (EGFR-WT) cells.

Consider `COc1cc(N2CCC(N3CCN(C(=O)CNc4cccc5c4C(=O)N(C4CCC(=O)NC4=O)C5=O)CC3)CC2)ccc1Nc1ncc(Cl)c(Nc2ccccc2P(C)(C)=O)n1` (stereo not drawn) [Control compound B, reference compound], for which the IC50 in data set [1] (read-out: IC50 (class symbol)) is 100 to 500 nM; in data set [1] (setting [4]), 658 nM; in data set [2] (read-out: IC50 (class symbol)), 500 to 1000 nM; in data set [2] (read-out: IC50 (value)), 704 nM. This compound also had an AUC in data set [3] of 2090 ng·h/mL. The compound further gave a half-life in data set [3] of 73.8 min.

As to `COc1cc(N2CCC(N3CCN(C4CC5(CCN(c6ccc7c(c6)C(=O)N(C6CCC(=O)NC6=O)C7=O)CC5)C4)CC3)CC2)c(-c2cnn(C)c2)cc1Nc1ncc(Br)c(Nc2ccc(-c3ccccc3)cc2P(C)(C)=O)n1` (stereo not drawn) [Compound 63, 5-(2-(4-(1-(4-((5-bromo-4-((3-(dimethylphosphoryl)-[1,1′-biphenyl]-4-yl)amino)pyrimidin-2-yl)amino)-5-methoxy-2-(1-methyl-1H-pyrazol-4-yl)phenyl)piperidin-4-yl)piperazin-1-yl)-7-azaspiro[3.5]nonan-7-yl)-2-(2,6-dioxopiperidin-3-yl)isoindoline-1,3-dione], the IC50 in data set [1] (read-out: IC50 (class symbol)) is less than 100 nM; in data set [1] (setting [4]) it was 90 nM; in the data set with A431 (EGFR-WT) cells it was not below 10 µM. In data set [3], the AUC(0-t) amounted to 14700 ng·h/mL.

On to `COc1cc(N2CCC(N3CCN(CCOCC#Cc4cccc5c4CN(C4CCC(=O)NC4=O)C5=O)CC3)CC2)ccc1Nc1ncc(Cl)c(Nc2ccccc2P(C)(C)=O)n1` (stereo not drawn) [Control compound A, reference compound], for which the IC50 was 100 to 500 nM in data set [1] (read-out: IC50 (class symbol)), 549 nM in data set [1] (setting [4]) and 1380 nM in data set [2] (read-out: IC50 (value)). This compound also came in with an AUC in data set [3] of 563 ng·h/mL. In addition, in data set [3], the half-life is 92.4 min.

With `COc1cc(N2CCC(N3CCN(CC4CCN(c5ccc6c(c5)C(=O)N(C5CCC(=O)NC5=O)C6=O)CC4)CC3)CC2)c(-c2cnn(C)c2)cc1Nc1ncc(Br)c(Nc2ccc(C)c(C)c2P(C)(C)=O)n1` (stereo not drawn) [Compound 73, 5-(4-((4-(1-(4-((5-bromo-4-((2-(dimethylphosphoryl)-3,4-dimethylphenyl)amino)pyrimidin-2-yl)amino)-5-methoxy-2-(1-methyl-1H-pyrazol-4-yl)phenyl)piperidin-4-yl)piperazin-1-yl)methyl)piperidin-1-yl)-2-(2,6-dioxopiperidin-3-yl)isoindoline-1,3-dione], the IC50 was less than 100 nM in data set [1] (read-out: IC50 (class symbol)), 26 nM in data set [1] (setting [4]) and not below 10 µM in the data set on A431 (EGFR-WT) cells. For the same compound, the AUC(0-t) in data set [3] turned out to be 13700 ng·h/mL.

As for `COc1cc(N2CCC3(CCN(CC4CCN(c5ccc6c(c5)C(=O)N(C5CCC(=O)NC5=O)C6=O)CC4)CC3)CC2)c(-c2cnn(C)c2)cc1Nc1ncc(Cl)c(Nc2ccc3nccnc3c2P(C)(C)=O)n1` (stereo not drawn) [Compound 9, 5-(4-((9-(4-((5-chloro-4-((5-(dimethylphosphoryl)quinoxalin-6-yl)amino)pyrimidin-2-yl)amino)-5-methoxy-2-(1-methyl-1H-pyrazol-4-yl)phenyl)-3,9-diazaspiro[5.5]undecan-3-yl)methyl)piperidin-1-yl)-2-(2,6-dioxopiperidin-3-yl)isoindoline-1,3-dione], the IC50 in data set [1] (read-out: IC50 (class symbol)) is less than 100 nM; in data set [1] (setting [4]) it was 14 nM; in data set [2] (read-out: IC50 (class symbol)), less than 200 nM; in data set [2] (read-out: IC50 (value)) it was 39 nM.

With `COc1cc(N2CCC(N3CCN(CC4CCN(c5ccc6c(c5)C(=O)N(C5CCC(=O)NC5=O)C6=O)CC4)CC3)CC2)c(-c2cnn(C)c2)cc1Nc1ncc(Br)c(Nc2ccc3ccccc3c2P(C)(C)=O)n1` (stereo not drawn) [Compound 71, 5-(4-((4-(1-(4-((5-bromo-4-((1-(dimethylphosphoryl)naphthalen-2-yl)amino)pyrimidin-2-yl)amino)-5-methoxy-2-(1-methyl-1H-pyrazol-4-yl)phenyl)piperidin-4-yl)piperazin-1-yl)methyl)piperidin-1-yl)-2-(2,6-dioxopiperidin-3-yl)isoindoline-1,3-dione], the figures for the IC50 (in data set [1] (read-out: IC50 (class symbol)); in data set [1] (setting [4]); in the data set on A431 (EGFR-WT) cells) were less than 100 nM, 29 nM and not below 10 µM, respectively. The compound further yielded an exposure AUC(0-t) in data set [3] of 24700 ng·h/mL.
